According to ChEMBL document CHEMBL2434902, “A new strategy to improve the metabolic stability of lactone: discovery of (20S,21S)-21-fluorocamptothecins as novel, hydrolytically stable topoisomerase I inhibitors” (J Med Chem, 2013):
Activity calls are given as the source filed them. The rule behind the calls is not given here.

Legend:
MDA-MB-435 = assay: Cytotoxicity against human MDA-MB-435 cells after 72 hrs by MTT assay; assay type: functional, cell-based; details: MDA-MB-435, 72 h
[1] = molecular target: T1, DNA topoisomerase 1 (Homo sapiens) (UniProt P11387); assay: Inhibition of topoisomerase1 (unknown origin)-mediated supercoiled DNA relaxation at 100 uM after 15 mins by SDS-PAGE analysis
T1 sequence (whole entry): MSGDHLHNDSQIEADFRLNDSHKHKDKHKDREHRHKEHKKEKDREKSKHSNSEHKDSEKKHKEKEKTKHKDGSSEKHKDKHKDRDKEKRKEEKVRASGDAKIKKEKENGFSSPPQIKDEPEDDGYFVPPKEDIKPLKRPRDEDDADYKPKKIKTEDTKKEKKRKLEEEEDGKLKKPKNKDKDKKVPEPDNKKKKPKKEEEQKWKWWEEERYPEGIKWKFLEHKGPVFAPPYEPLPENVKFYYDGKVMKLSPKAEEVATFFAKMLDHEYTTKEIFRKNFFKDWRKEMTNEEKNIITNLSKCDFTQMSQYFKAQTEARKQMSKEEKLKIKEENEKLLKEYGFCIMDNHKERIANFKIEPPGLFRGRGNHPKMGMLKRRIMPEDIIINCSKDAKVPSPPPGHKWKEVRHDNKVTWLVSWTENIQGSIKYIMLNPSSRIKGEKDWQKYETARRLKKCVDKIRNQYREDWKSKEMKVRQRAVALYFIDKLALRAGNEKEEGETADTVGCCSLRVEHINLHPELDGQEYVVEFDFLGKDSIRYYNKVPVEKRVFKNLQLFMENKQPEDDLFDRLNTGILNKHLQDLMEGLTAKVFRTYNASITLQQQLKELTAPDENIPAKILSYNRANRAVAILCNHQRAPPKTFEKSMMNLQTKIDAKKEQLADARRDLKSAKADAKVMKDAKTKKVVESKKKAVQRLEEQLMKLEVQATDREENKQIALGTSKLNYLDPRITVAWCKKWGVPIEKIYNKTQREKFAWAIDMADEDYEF

[2] = Stability of the compound in PBS buffer at pH 7.4 assessed as compound remaining after 6 hrs by HPLC method; assay type: physicochemical; details: read-out: Stability
HCT-116 = assay: Cytotoxicity against human HCT116 cells after 72 hrs by MTT assay; assay type: functional, cell-based; details: HCT-116, 72 h
A549 [3] = assay: Cytotoxicity against human A549 cells after 72 hrs by MTT assay; assay type: functional, cell-based; details: A549, 72 h
A549 [4] = assay: Cell cycle arrest in human A549 cells assessed as accumulation at S phase at 10 uM after 36 hrs by propidium iodide staining-based flow cytometry; assay type: functional
A549 [5] = assay: Induction of apoptosis in human A549 cells assessed as small, round floating cells at 10 uM after 48 hrs by immunostaining relative to control; assay type: functional, cell-based
[6] = molecular target: T1, DNA topoisomerase 1 (Homo sapiens); assay: Inhibition of topoisomerase1 (unknown origin)-mediated DNA cleavage at 100 uM after 15 mins by SDS-PAGE analysis
[7] = Stability of the compound in PBS buffer at pH 7.4; assay type: physicochemical
A549 [8] = assay: Antitumor activity against human A549 cells xenografted in BALB/C nude mouse assessed as tumor growth inhibition at 2 mg/kg, ip administered for 5 days measured after day 30 to 33 relative to vehicle-treated control; assay type: functional; details: route intraperitoneal, read-out: TGI
Mus musculus = assay: Toxicity in BALB/C nude mouse xenografted with human A549 cells assessed as weight loss at 2 mg/kg, ip after 5 days relative to vehicle-treated control; assay type: organism-based; set-up: dose 2 mg/kg, route intraperitoneal; details: in vivo, 120 h
A549 [9] = assay: Antitumor activity against human A549 cells xenografted in ip dosed BALB/C nude mouse assessed as tumor growth inhibition administered for 5 days measured after day 30 to 33 relative to vehicle-treated control; assay type: functional, organism-based
[10] = molecular target: DNA topoisomerase 2-alpha (Homo sapiens) (UniProt P11388); assay: Inhibition of topoisomerase2 alpha (unknown origin)-mediated supercoiled DNA relaxation at 100 uM after 30 mins by SDS-PAGE analysis
DNA topoisomerase 2-alpha (Homo sapiens), sequence (P11388 whole entry): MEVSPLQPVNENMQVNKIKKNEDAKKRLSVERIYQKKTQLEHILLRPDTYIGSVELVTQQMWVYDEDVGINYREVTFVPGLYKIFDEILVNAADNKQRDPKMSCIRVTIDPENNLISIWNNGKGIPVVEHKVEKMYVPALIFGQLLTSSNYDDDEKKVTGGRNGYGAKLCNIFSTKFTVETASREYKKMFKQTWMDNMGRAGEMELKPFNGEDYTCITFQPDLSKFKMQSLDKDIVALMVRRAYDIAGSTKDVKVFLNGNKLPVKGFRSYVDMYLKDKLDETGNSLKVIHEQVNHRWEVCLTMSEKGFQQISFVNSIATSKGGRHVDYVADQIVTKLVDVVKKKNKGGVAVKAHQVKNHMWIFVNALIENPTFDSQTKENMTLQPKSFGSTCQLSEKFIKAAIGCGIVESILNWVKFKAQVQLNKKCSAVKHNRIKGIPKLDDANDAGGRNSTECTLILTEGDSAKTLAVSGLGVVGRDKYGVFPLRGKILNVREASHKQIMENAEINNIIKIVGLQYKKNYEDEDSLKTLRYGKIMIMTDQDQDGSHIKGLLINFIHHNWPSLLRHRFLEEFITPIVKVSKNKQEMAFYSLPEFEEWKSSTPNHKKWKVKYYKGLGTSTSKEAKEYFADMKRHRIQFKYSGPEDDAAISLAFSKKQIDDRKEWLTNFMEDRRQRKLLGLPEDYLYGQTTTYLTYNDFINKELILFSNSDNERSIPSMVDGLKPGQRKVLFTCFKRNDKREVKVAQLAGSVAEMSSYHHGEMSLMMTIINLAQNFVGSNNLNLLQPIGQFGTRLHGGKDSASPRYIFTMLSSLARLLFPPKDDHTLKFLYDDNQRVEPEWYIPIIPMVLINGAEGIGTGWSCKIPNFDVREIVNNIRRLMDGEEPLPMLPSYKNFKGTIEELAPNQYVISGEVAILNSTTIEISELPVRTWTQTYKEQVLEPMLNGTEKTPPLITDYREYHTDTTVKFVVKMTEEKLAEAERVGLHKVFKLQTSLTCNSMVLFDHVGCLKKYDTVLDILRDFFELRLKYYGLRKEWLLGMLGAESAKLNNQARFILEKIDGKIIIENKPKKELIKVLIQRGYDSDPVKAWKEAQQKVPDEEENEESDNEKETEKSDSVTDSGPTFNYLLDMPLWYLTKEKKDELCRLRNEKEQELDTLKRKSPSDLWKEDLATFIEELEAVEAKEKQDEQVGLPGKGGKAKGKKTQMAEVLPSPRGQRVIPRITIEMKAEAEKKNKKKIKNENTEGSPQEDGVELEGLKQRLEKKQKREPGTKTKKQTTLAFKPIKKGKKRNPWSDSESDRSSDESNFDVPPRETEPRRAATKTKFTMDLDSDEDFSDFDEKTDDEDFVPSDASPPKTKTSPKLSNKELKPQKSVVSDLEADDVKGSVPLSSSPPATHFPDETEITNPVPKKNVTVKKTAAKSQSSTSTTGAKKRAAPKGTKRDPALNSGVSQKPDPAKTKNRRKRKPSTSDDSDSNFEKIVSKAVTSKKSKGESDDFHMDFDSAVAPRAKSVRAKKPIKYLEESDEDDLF

A549 [11] = assay: Induction of apoptosis in human A549 cells assessed as apoptotic cells at 0.5 uM after 48 hrs by AnnexinV-FITC/propidium iodide staining-based flow cytometry (reference value: 5.23%); assay type: functional
A549 [12] = assay: Cell cycle arrest in human A549 cells assessed as decrease in G0/G1 phase at 10 uM after 36 hrs by propidium iodide staining-based flow cytometry; assay type: functional
A549 [13] = assay: Antitumor activity against human A549 cells xenografted in BALB/C nude mouse assessed as tumor growth inhibition at 4 mg/kg, ip administered for 5 days measured after day 30 to 33 relative to vehicle-treated control; assay type: functional; details: route intraperitoneal, read-out: TGI
A549 [14] = assay: Antitumor activity against human A549 cells xenografted in BALB/C nude mouse assessed as tumor growth inhibition at 0.5 mg/kg, ip administered for 5 days measured after day 30 to 33 relative to vehicle-treated control; assay type: functional, organism-based; set-up: dose 0.5 mg/kg

| SMILES | IC50 (MDA-MB-435) | inhibition [1] | IC50 (HCT-116) | IC50 (A549 [3]) | also measured |
| --- | --- | --- | --- | --- | --- |
| CC[C@]1(O)c2cc3n(c(=O)c2CO[C@H]1F)Cc1cc2ccccc2nc1-3 [(20S,21S)-FLUOROCAMPTOTHECIN] | 58.3 µM | Active | 6.35 µM | 9.95 µM | remaining at 6 h [2]: 96% |
| CC[C@]1(O)c2cc3n(c(=O)c2CO[C@H]1F)Cc1c-3nc2ccccc2c1C1CCCCC1 [(20S,21S)-7-CYCLOHEXYLFLUOROCAMPTOTHECIN] | 0.41 µM | Active | 0.07 µM | 0.71 µM | Activity (A549 [4]): Active; Activity (A549 [5]): Active; inhibition [6]: inactive; Stability [7]: Stable; inhibition in vivo at 2 mg/kg (A549 [8]): 34%; Activity (Mus musculus): Non-toxic; TGI (A549 [9]): Dose-dependent effect; inhibition [10]: inactive; Activity (A549 [11]): 94.11%; Activity (A549 [12]): Active; inhibition in vivo at 4 mg/kg (A549 [13]): 63% |
| CC[C@]1(O)c2cc3n(c(=O)c2CO[C@H]1F)Cc1c-3nc2ccccc2c1C1CCC1 | 15.8 µM |  | 95.4 µM | 1 µM |  |
| CCCc1c2c(nc3ccccc13)-c1cc3c(c(=O)n1C2)CO[C@@H](F)[C@]3(O)CC | 2.32 µM |  | 0.82 µM | 2.54 µM |  |
| CCCCc1c2c(nc3ccccc13)-c1cc3c(c(=O)n1C2)CO[C@@H](F)[C@]3(O)CC | 3.53 µM | Active | 0.27 µM | 17.7 µM |  |
| CC[C@]1(O)c2cc3n(c(=O)c2CO[C@H]1F)Cc1c-3nc2ccccc2c1C1CCCC1 | 11.8 µM |  | 19.8 µM | 4.14 µM |  |
| CC[C@]1(O)c2cc3n(c(=O)c2CO[C@H]1F)Cc1c-3nc2ccccc2c1C | 8.66 µM |  | 1.46 µM | 4.23 µM |  |
| CCc1c2c(nc3ccc(OC)cc13)-c1cc3c(c(=O)n1C2)CO[C@@H](F)[C@]3(O)CC | 12.7 µM |  | 1.45 µM | 6.35 µM |  |
| CC[C@]1(O)c2cc3n(c(=O)c2CO[C@H]1F)Cc1cc2c([N+](=O)[O-])cccc2nc1-3 | 53 µM | Active | 1.02 µM | 11.3 µM |  |
| CCc1c2c(nc3ccccc13)-c1cc3c(c(=O)n1C2)CO[C@@H](F)[C@]3(O)CC | 10.9 µM |  | 8.53 µM | 12.7 µM |  |
| CC[C@]1(O)c2cc3n(c(=O)c2CO[C@H]1F)Cc1cc2cc(OC)ccc2nc1-3 | > 100 µM | Active | 6.15 µM | 41.7 µM |  |
| CC[C@@]1(O)C(=O)OCc2c1cc1n(c2=O)Cc2cc3ccccc3nc2-1 [CAMPTOTHECIN] | < 0.001 µM |  | 0.07 µM | 0.65 µM | remaining at 6 h [2]: 42.7% |
| CC[C@@]1(O)C(=O)OCc2c1cc1n(c2=O)Cc2cc3c(CN(C)C)c(O)ccc3nc2-1 [TOPOTECAN] |  |  |  |  | Activity (Mus musculus): Toxic; TGI (A549 [14]): Active |
| CC[C@]1(O)c2cc3n(c(=O)c2CO[C@@H]1F)Cc1cc2ccccc2nc1-3 [(20S,21R)-FLUOROCAMPTOTHECIN] | > 100 µM | Active | 50.9 µM | 46.2 µM |  |
| CC[C@]1(O)c2cc3n(c(=O)c2CO[C@H]1F)Cc1c-3nc2ccccc2c1C(C)C | 41.1 µM |  | 65.7 µM | > 100 µM |  |
| CC[C@]1(O)c2cc3n(c(=O)c2CO[C@H]1F)Cc1c-3nc2ccccc2c1C1CC1 | 9.41 µM |  | 3.39 µM | 15.5 µM |  |
